Assay results: ChEMBL document CHEMBL5291721, “A preclinical secondary pharmacology resource illuminates target-adverse drug reaction associations of marketed drugs” (Nat Commun, 2023)

Legend:
[1] = biological target: T1, Alpha-1A adrenergic receptor (Homo sapiens, UniProt P35348); format: functional, cell-based
T1 sequence (P35348 whole entry): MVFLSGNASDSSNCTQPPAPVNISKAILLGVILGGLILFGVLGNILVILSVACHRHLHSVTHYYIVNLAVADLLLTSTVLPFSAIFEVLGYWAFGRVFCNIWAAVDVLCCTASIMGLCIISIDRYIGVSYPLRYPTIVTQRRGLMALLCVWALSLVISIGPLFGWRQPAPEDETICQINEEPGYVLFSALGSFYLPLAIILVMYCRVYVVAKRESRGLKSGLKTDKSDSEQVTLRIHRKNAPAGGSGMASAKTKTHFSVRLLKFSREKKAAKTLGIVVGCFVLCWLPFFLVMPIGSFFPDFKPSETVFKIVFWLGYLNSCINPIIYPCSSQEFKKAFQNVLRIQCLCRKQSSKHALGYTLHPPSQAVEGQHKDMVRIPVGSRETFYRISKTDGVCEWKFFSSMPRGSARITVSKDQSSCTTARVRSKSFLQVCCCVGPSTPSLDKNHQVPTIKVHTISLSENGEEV

[2] = biological target: Beta-1 adrenergic receptor (Homo sapiens, UniProt P08588); format: functional
Chain of Beta-1 adrenergic receptor (P08588 whole entry): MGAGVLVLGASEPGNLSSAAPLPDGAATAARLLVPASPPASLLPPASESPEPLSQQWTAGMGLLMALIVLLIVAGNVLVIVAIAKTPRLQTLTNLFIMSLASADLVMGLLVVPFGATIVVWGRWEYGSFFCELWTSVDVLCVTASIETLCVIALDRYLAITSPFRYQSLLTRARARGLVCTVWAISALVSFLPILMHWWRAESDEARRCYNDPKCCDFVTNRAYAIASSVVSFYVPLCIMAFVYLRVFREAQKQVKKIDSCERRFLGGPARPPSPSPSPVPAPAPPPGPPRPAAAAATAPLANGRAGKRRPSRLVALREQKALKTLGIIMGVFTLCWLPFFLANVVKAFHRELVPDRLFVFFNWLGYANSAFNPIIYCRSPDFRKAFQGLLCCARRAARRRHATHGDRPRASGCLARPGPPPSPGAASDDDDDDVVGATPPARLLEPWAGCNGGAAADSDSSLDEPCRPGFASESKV

[3] = biological target: T2, 5-hydroxytryptamine receptor 2C (Homo sapiens, UniProt P28335)
T2 sequence (P28335 whole entry): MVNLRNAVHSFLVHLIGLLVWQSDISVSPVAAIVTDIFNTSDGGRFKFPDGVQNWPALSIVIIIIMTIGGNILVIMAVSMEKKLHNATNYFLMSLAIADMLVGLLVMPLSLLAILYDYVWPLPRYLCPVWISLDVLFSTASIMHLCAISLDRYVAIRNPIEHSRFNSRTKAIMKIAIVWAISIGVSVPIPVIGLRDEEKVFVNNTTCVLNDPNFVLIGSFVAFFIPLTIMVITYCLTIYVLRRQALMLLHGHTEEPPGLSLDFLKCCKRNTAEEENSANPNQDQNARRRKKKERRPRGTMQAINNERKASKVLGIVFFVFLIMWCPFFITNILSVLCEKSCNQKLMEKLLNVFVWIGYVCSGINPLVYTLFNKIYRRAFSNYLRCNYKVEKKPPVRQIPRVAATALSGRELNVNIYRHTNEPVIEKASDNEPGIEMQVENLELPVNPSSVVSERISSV

[4] = biological target: T3, Alpha-2C adrenergic receptor (Homo sapiens, UniProt P18825); format: functional
T3 sequence (P18825 whole entry): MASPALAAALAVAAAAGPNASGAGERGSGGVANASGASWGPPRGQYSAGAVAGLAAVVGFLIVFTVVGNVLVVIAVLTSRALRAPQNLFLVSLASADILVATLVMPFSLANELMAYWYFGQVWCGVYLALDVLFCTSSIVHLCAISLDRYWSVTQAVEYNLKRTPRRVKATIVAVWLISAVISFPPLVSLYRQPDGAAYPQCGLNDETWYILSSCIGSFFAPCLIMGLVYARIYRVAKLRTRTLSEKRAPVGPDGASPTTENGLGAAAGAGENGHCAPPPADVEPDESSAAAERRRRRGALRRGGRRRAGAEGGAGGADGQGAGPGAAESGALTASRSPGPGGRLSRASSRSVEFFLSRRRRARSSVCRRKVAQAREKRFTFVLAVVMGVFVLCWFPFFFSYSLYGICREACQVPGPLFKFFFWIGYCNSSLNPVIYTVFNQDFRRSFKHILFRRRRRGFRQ

Motilin receptor = Motilin receptor (Homo sapiens, UniProt O43193)
Chain of Motilin receptor (O43193 whole entry): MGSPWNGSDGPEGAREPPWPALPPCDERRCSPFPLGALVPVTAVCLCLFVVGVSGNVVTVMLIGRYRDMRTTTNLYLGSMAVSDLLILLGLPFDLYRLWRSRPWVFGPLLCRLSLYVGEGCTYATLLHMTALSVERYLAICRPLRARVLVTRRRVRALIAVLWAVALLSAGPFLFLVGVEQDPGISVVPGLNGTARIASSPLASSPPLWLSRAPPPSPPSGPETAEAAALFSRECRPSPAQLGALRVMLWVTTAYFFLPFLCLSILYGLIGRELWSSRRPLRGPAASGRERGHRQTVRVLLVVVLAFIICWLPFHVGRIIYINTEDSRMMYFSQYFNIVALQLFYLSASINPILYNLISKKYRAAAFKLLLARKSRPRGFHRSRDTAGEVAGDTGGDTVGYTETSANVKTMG

[5] = biological target: T4, 5-hydroxytryptamine receptor 1A (Homo sapiens, UniProt P08908); format: functional, cell-based
T4 sequence (P08908 whole entry): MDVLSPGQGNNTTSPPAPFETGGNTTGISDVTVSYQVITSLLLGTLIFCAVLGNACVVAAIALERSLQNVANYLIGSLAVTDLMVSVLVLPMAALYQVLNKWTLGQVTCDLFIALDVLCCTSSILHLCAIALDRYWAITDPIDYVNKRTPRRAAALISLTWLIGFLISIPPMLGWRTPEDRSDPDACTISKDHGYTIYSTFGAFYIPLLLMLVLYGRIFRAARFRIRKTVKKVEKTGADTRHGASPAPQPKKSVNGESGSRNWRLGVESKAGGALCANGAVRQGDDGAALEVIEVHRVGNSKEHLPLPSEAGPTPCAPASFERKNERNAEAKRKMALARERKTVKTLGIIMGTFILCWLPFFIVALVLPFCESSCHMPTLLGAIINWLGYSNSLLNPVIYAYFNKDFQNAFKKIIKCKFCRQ

Vasopressin V2 receptor = Vasopressin V2 receptor (Homo sapiens, UniProt P30518)
Chain of Vasopressin V2 receptor (P30518 whole entry): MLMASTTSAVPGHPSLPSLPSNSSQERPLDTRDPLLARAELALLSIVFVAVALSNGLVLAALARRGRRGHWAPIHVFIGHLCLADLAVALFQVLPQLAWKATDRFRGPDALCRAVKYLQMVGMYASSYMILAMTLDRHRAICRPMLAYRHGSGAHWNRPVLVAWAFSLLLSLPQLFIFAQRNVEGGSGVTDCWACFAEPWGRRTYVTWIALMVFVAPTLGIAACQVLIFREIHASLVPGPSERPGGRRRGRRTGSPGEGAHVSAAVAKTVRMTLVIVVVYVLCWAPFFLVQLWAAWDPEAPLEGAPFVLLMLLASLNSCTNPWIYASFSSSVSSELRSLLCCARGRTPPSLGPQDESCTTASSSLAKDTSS

[6] = biological target: Sodium-dependent dopamine transporter (Homo sapiens, UniProt Q01959)
Chain of Sodium-dependent dopamine transporter (Q01959 whole entry): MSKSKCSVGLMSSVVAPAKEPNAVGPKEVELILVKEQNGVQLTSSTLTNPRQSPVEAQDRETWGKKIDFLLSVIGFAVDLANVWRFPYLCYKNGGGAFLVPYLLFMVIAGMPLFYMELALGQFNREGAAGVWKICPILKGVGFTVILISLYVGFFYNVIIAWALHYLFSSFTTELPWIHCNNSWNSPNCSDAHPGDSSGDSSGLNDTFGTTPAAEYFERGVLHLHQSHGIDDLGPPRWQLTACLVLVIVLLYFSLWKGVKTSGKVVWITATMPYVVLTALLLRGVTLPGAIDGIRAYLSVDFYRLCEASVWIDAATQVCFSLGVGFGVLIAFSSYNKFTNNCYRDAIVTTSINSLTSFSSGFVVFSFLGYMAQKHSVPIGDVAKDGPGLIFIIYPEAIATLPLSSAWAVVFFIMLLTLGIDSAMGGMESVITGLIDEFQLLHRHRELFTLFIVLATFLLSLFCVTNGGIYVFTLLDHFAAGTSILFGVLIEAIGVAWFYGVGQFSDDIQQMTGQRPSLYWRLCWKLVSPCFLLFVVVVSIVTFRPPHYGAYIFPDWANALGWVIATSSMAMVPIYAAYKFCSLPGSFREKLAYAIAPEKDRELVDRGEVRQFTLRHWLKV

Estrogen receptor = biological target: T5, Estrogen receptor (Homo sapiens, UniProt P03372)
T5 sequence (P03372 whole entry): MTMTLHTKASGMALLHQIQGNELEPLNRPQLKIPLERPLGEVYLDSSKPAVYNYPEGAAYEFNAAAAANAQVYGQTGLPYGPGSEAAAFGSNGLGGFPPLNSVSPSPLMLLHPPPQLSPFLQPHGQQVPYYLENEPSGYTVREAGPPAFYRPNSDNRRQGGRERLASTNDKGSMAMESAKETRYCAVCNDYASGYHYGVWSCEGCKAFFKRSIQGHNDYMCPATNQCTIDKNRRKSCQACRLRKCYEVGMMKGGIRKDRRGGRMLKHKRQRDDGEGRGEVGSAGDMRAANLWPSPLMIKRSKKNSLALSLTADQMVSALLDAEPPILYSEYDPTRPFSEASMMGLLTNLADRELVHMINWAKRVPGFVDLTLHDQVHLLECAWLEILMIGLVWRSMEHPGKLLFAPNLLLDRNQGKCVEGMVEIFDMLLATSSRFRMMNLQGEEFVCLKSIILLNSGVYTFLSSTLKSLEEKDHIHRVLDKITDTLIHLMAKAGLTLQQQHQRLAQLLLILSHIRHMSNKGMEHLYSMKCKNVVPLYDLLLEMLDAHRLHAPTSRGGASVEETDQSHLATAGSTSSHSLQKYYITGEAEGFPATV
Also: assay procedure not described here.

Cc1cc2c(cc1S(N)(=O)=O)S(=O)(=O)CCC2
AC50 [1]: > 30 µM

C[C@H](N[C@@H](CCc1ccccc1)C(=O)O)C(=O)N1Cc2ccccc2C[C@H]1C(=O)O
AC50 [1]: > 30 µM

O=C(O)[C@@H]1C[C@@H](O)CN1
AC50 [1]: > 30 µM

CC1(C)S[C@@H]2[C@H](/N=C/N3CCCCCC3)C(=O)N2[C@H]1C(=O)O [AMDINOCILLIN]
AC50 [1]: > 30 µM

CC(=O)[C@]1(N)Cc2c(O)c3c(c(O)c2[C@@H](O[C@H]2C[C@H](O)[C@H](O)CO2)C1)C(=O)c1ccccc1C3=O [AMRUBICIN]
AC50 [1]: > 3 µM

NC(=O)[C@@H]1CC[C@@H]2CN1C(=O)N2OS(=O)(=O)O [AVIBACTAM]
AC50 [1]: > 30 µM

CC(=O)OC[C@H]1O[C@@H](n2ncc(=O)[nH]c2=O)[C@H](OC(C)=O)[C@@H]1OC(C)=O [AZARIBINE]
AC50 [1]: > 30 µM

CC(C)(C)NC(=O)N[C@H](C(=O)N1C[C@H]2[C@@H]([C@H]1C(=O)NC(CC1CCC1)C(=O)C(N)=O)C2(C)C)C(C)(C)C (some centres not stated) [BOCEPREVIR]
AC50 [1]: > 30 µM

C=C1CC[C@H](O)C/C1=C/C=C1\CCC[C@]2(C)[C@@H]([C@H](C)CCCC(C)C)CC[C@@H]12 [CHOLECALCIFEROL]
AC50 [1]: > 30 µM

C[C@H](CCC(=O)O)[C@H]1CC[C@H]2[C@@H]3[C@H](O)C[C@@H]4C[C@H](O)CC[C@]4(C)[C@H]3C[C@H](O)[C@]12C [CHOLIC ACID]
AC50 [1]: > 30 µM

Cc1ncc2c(c1O)COC2c1ccc(Cl)cc1 (configuration not stated) [CICLETANINE]
AC50 [1]: > 30 µM

Cc1cn([C@H]2O[C@@H](CO)[C@H](O)[C@H]2F)c(=O)[nH]c1=O [CLEVUDINE]
AC50 [1]: > 30 µM

N#Cc1ccc(Oc2ccc3c(c2)COB3O)cc1 [CRISABOROLE]
AC50 [1]: 4.32 µM

CC(=O)[C@H]1CC[C@H]2[C@@H]3C=CC4=CC(=O)CC[C@@]4(C)[C@@H]3CC[C@]12C [DYDROGESTERONE]
AC50 [1]: 29.2 µM

CC(=O)O[C@H]1Cc2ccccc2N(C(N)=O)c2ccccc21 [ESLICARBAZEPINE ACETATE]
AC50 [1]: > 30 µM

CC(O)(P(=O)(O)O)P(=O)(O)O [ETIDRONIC ACID]
AC50 [1]: > 30 µM

Cc1ccc(S(=O)(=O)NC(=O)NC2CCCCC2)cc1 [GLYCYCLAMIDE]
AC50 [1]: > 30 µM

CN1CCCN(C(c2ccccc2)c2ccc(Cl)cc2)CC1 (configuration not stated) [HOMOCHLORCYCLIZINE]
AC50 [1]: 2.89 µM

CC(=O)OCC(=O)[C@@]1(O)CC[C@H]2[C@@H]3CCC4=CC(=O)CC[C@]4(C)[C@H]3[C@@H](O)C[C@@]21C [HYDROCORTISONE ACETATE]
AC50 [1]: > 30 µM

CC(COc1ccccc1)NC(C)C(O)c1ccc(O)cc1 (configuration not stated) [ISOXSUPRINE]
AC50 [1]: 1.04 µM

O=C(CCC/C=C\C[C@@H]1[C@@H](CC[C@@H](O)CCc2ccccc2)[C@H](O)C[C@@H]1O)OCCCCO[N+](=O)[O-] [LATANOPROSTENE BUNOD]
AC50 [1]: > 10 µM

Cc1oc(=O)oc1COC(=O)[C@@H]1N2C(=O)[C@@H](NC(=O)[C@H](N)c3ccccc3)[C@H]2SC1(C)C [LENAMPICILLIN]
AC50 [1]: 24.5 µM

CCC[C@@H]1C[C@@H](C(=O)N[C@@H]([C@H]2O[C@H](SC)[C@H](O)[C@@H](O)[C@H]2O)[C@@H](C)O)N(C)C1 [LINCOMYCIN]
AC50 [2]: > 10 µM
AC50 [3]: > 30 µM
AC50 [4]: > 10 µM
AC50 (Motilin receptor): > 10 µM
AC50 [5]: > 10 µM
AC50 (Vasopressin V2 receptor): > 10 µM
AC50 [6]: > 10 µM
AC50 (Estrogen receptor): > 10 µM

COC(=O)C1=C(C)NC(C)=C(C(=O)OCCN2CCN(C(c3ccccc3)c3ccccc3)CC2)C1c1cccc([N+](=O)[O-])c1 (configuration not stated) [MANIDIPINE 6300]
AC50 [2]: > 30 µM
AC50 [3]: > 30 µM
AC50 [4]: > 30 µM
AC50 (Motilin receptor): > 30 µM
AC50 [5]: > 30 µM
AC50 (Vasopressin V2 receptor): > 30 µM
AC50 [6]: 23 µM
AC50 (Estrogen receptor): > 1 µM

C=C1c2cccc(O)c2C(=O)C2=C(O)[C@]3(O)C(=O)C(C(N)=O)=C(O)[C@@H](N(C)C)[C@@H]3[C@@H](O)[C@H]12 [METHACYCLINE]
AC50 [2]: > 10 µM
AC50 [3]: > 30 µM
AC50 [4]: > 10 µM
AC50 (Motilin receptor): > 30 µM
AC50 [5]: > 10 µM
AC50 (Vasopressin V2 receptor): > 30 µM
AC50 [6]: > 10 µM
AC50 (Estrogen receptor): > 30 µM

CN(Cc1cnc2nc(N)nc(N)c2n1)c1ccc(C(=O)N[C@@H](CCC(=O)O)C(=O)O)cc1 [METHOTREXATE]
AC50 [2]: > 10 µM
AC50 [3]: > 30 µM
AC50 [4]: > 10 µM
AC50 (Motilin receptor): > 10 µM
AC50 [5]: > 10 µM
AC50 (Vasopressin V2 receptor): > 30 µM
AC50 [6]: > 30 µM
AC50 (Estrogen receptor): > 30 µM

CC1(CCN2CCCCC2)C(=O)CCc2ccccc21 (configuration not stated) [NEPINALONE]
AC50 [1]: > 30 µM

O=C(O)c1cccnc1Nc1cccc(C(F)(F)F)c1 [NIFLUMIC ACID]
AC50 [2]: > 10 µM
AC50 [3]: > 30 µM
AC50 [4]: > 10 µM
AC50 (Motilin receptor): > 10 µM
AC50 [5]: > 10 µM
AC50 (Vasopressin V2 receptor): > 10 µM
AC50 [6]: > 10 µM
AC50 (Estrogen receptor): > 10 µM

COC(=O)C[C@](O)(CCCC(C)(C)O)C(=O)O[C@@H]1C(OC)=C[C@]23CCCN2CCc2cc4c(cc2[C@H]13)OCO4 [OMACETAXINE MEPESUCCINATE]
AC50 [1]: > 30 µM

COc1cccc(C(=O)CCN[C@@H](C)[C@H](O)c2ccccc2)c1 [OXYFEDRINE]
AC50 [1]: 0.205 µM

OC[C@H]1O[C@@H](n2cnc3c2NC=NC[C@H]3O)C[C@@H]1O [PENTOSTATIN]
AC50 [2]: > 30 µM
AC50 [3]: > 10 µM
AC50 [4]: > 30 µM
AC50 (Motilin receptor): > 30 µM
AC50 [5]: > 30 µM
AC50 (Vasopressin V2 receptor): > 30 µM
AC50 [6]: > 30 µM
AC50 (Estrogen receptor): > 30 µM

O=C1c2ccccc2C(=O)C1c1ccccc1 [PHENINDIONE]
AC50 [2]: > 10 µM
AC50 [3]: > 30 µM
AC50 [4]: > 10 µM
AC50 (Motilin receptor): > 10 µM
AC50 [5]: > 30 µM
AC50 (Vasopressin V2 receptor): > 10 µM
AC50 [6]: > 10 µM
AC50 (Estrogen receptor): > 10 µM

CN[C@@H](C)[C@@H](O)c1ccccc1 [PSEUDOEPHEDRINE]
AC50 [2]: > 10 µM
AC50 [3]: > 30 µM
AC50 [4]: 13 µM
AC50 (Motilin receptor): > 10 µM
AC50 [5]: > 10 µM
AC50 (Vasopressin V2 receptor): > 30 µM
AC50 [6]: > 10 µM
AC50 (Estrogen receptor): > 30 µM

C[C@]12C=CC(=O)C=C1CC[C@@H]1[C@@H]2CC[C@]2(C)OC(=O)CC[C@@H]12 [TESTOLACTONE]
AC50 [2]: > 10 µM
AC50 [3]: > 30 µM
AC50 [4]: > 10 µM
AC50 (Motilin receptor): > 10 µM
AC50 [5]: > 10 µM
AC50 (Vasopressin V2 receptor): > 10 µM
AC50 [6]: > 10 µM
AC50 (Estrogen receptor): > 10 µM
